Measured values taken from patent US10421768B2, “Method of biotransformation of benzopyrone compounds into the corresponding phosphate-conjugated derivatives” (National Taiwan University, priority 2016, dated 2019).
Values after ≈ are worked out from the molar mass of the structure shown. Read-outs that look alike come from different tables or passages of the source.

How the values were obtained:
[1] = cited from earlier work; for water solubility relative to aglyconic form of isoflavones: derivatives reported in several studies; for solubility in water (in words): qualitative statement (b7: according to Merck Index); for solubility: in water, stated in text without method
[2] = Solubility of isoflavone phosphate conjugates and aglycones in DI water (25° C.); assay type: physicochemical; settings: for solubility relative to genistein and daidzein: 25° C. water, phosphate vs aglycone; for Solubility enhancement ratio: phosphate conjugate vs aglycone
Excerpt: This can increase the application of isoflavones in pharmaceuticals, food, and cosmetics.

[3] = DI water, 25° C., read-out: Water solubility

Compound | water solubility relative to aglyconic form of isoflavones [1] | solubility in water (in words) [1] | solubility [1] | also measured
O=c1c(-c2ccc(O)cc2)coc2c(O)c(O)cc(O)c12 [8-hydroxy genistein] | higher water solubility | – | – | –
O=c1c(-c2ccc(O)cc2)coc2cc(O)c(O)c(O)c12 [6-hydroxy genistein] | higher water solubility | – | – | –
O=c1c(O)c(-c2ccc(O)c(O)c2)oc2cc(O)cc(O)c12 [quercetin] | – | barely insoluble in water | – | –
O=c1c(O)c(-c2ccc(O)cc2)oc2cc(O)cc(O)c12 [Kaempferol, kaempferol] | – | barely insoluble in water | – | –
O=c1c(-c2ccc(O)cc2)coc2cc(OP(=O)(O)O)ccc12 [Daidzein-7-O-phosphate, daidzein-7-O-phosphate] | – | – | – | solubility relative to genistein and daidzein [2]: ten million times higher; solubility [2, 3]: 179000 µg/mL (≈ 536000 µM); Solubility enhancement ratio ([2]; DI water, 25° C.): 1.3 × 10^5
O=c1c(-c2ccc(O)cc2O)coc2cc(O)cc(O)c12 [2′-hydroxy genistein] | higher water solubility | – | – | –
O=c1c(-c2ccc(O)cc2)coc2cc(OP(=O)(O)O)cc(O)c12 [Genistein-7-O-phosphate, genistein-7-O-phosphate] | – | – | – | solubility relative to genistein and daidzein [2]: ten million times higher; solubility [2, 3]: 100000 µg/mL (≈ 286000 µM); Solubility enhancement ratio ([2]; DI water, 25° C.): 1.2 × 10^5
O=c1c(-c2ccc(O)cc2)coc2cc(O)cc(O)c12 [Genistein, genistein] | – | practically insoluble in water | 0.8 µg/mL (≈ 2.96 µM) | solubility [2, 3]: 0.82 µg/mL (≈ 3.03 µM)
O=C1C[C@@H](c2ccc(O)cc2)Oc2cc(O)cc(O)c21 [Naringenin, naringenin] | – | – | 45 µg/mL (≈ 165 µM) | –
O=c1c(-c2ccc(O)cc2)coc2cc(O)ccc12 [Daidzein, daidzein] | – | practically insoluble in water | 8.2 µg/mL (≈ 32.3 µM) | solubility ([2]; 25 °C, water): 1.36 µg/mL (≈ 5.35 µM)
COc1ccc([C@@H]2CC(=O)c3c(O)cc(O)cc3O2)cc1O [hesperetin] | – | – | 1.4 µg/mL (≈ 4.63 µM) | –
O=c1c(-c2ccc(O)cc2)coc2cc(OS(=O)(=O)O)ccc12 [daidzein-7-O-sulfate] | higher water solubility | – | – | –
